# Data taken from publication PMC6726534 (Biotechnology and bioengineering, 2019).
# Where a SMILES comes first, the peptide text is derived from it.
# How the values were obtained:
# Type in all cases: cell-based
# [1] = system: E. coli J2210; details: J2210, 1 h
# [2] = system: Salmonella enterica serovar Typhimurium ATCC SL1344; details: ATCC SL1344, 1 h
# [3] = system: E. coli JW0013; details: JW0013, 1 h
# [4] = system: Salmonella enterica serovar Enteritidis MH91989; details: serovar Enteritidis MH91989, 1 h
# [5] = system: E. coli JJ2489; details: JJ2489, 1 h
# [6] = system: E. coli FVEC 964; details: FVEC 964, 1 h
# [7] = system: Salmonella enterica serovar Newport; details: 1 h
# [8] = system: Salmonella enterica serovar Tennessee; details: 1 h
# [9] = system: Salmonella Infantis #129 B; details: 1 h
# [10] = system: E. coli FVEC 638; details: FVEC 638, 1 h
# [11] = system: E. coli PUTI 379; details: PUTI 379, 1 h
SMILES,MIC [1] [µM],MIC [2] [µM],MIC [3] [µM],MIC [4] [µM],MIC [5] [µM],MIC [6] [µM],MIC [7] [µM],MIC [8] [µM],MIC [9] [µM],MIC [10] [µM],MIC [11] [µM]
CC(C)C[C@H](NC(=O)[C@H](CCCNC(=N)N)NC(=O)[C@@H]1CCCN1C(=O)[C@H](CCCNC(=N)N)NC(=O)[C@@H]1CCCN1C(=O)[C@@H]1CCCN1C(=O)[C@H](CCCNC(=N)N)NC(=O)[C@@H]1CCCN1C(=O)[C@H](CCC(N)=O)NC(=O)[C@@H]1CCCN1C(=O)[C@H](CCCCN)NC(=O)[C@H](Cc1ccc(O)cc1)NC(=O)[C@@H](NC(=O)[C@@H]1CCCN1C(=O)[C@H](CCCNC(=N)N)NC(=O)[C@H](CC(N)=O)NC(=O)[C@H](CC(N)=O)NC(=O)CN)C(C)C)C(=O)O [Api_I8K/H15R] (H-GNNRPVYKPQPRPPRPRL-OH),0.252 ± 0.087,0.192 ± 0.044,0.062 ± 0.027,0.096 ± 0.023,,,,,,,
CC(C)C[C@H](NC(=O)[C@H](CCCNC(=N)N)NC(=O)[C@@H]1CCCN1C(=O)[C@H](CCCNC(=N)N)NC(=O)[C@@H]1CCCN1C(=O)[C@@H]1CCCN1C(=O)[C@H](CCCNC(=N)N)NC(=O)[C@@H]1CCCN1C(=O)[C@H](CCC(N)=O)NC(=O)[C@@H]1CCCN1C(=O)[C@H](CCCNC(=N)N)NC(=O)[C@H](Cc1ccc(O)cc1)NC(=O)[C@@H](NC(=O)[C@@H]1CCCN1C(=O)[C@H](CCCNC(=N)N)NC(=O)[C@H](CC(N)=O)NC(=O)[C@H](CC(N)=O)NC(=O)CN)C(C)C)C(=O)O [Api_I8R/H15R] (H-GNNRPVYRPQPRPPRPRL-OH),,,0.048 ± 0.011,0.067 ± 0.033,,,,,,,
CC[C@H](C)[C@H](NC(=O)[C@H](Cc1ccc(O)cc1)NC(=O)[C@@H](NC(=O)[C@@H]1CCCN1C(=O)[C@H](CCCCN)NC(=O)[C@H](CC(N)=O)NC(=O)[C@H](CC(N)=O)NC(=O)CN)C(C)C)C(=O)N1CCC[C@H]1C(=O)N[C@@H](CCC(N)=O)C(=O)N1CCC[C@H]1C(=O)N[C@@H](CCCNC(=N)N)C(=O)N1CCC[C@H]1C(=O)N1CCC[C@H]1C(=O)N[C@@H](CCCNC(=N)N)C(=O)N1CCC[C@H]1C(=O)N[C@@H](CCCNC(=N)N)C(=O)N[C@@H](CC(C)C)C(=O)O [Api_R4K/H15R] (H-GNNKPVYIPQPRPPRPRL-OH),0.133 ± 0.061,0.126 ± 0.052,0.048 ± 0.011,0.067 ± 0.033,0.067 ± 0.033,,,,,,
CC(C)C[C@H](NC(=O)[C@H](CCCNC(=N)N)NC(=O)[C@@H]1CCCN1C(=O)[C@H](CCCNC(=N)N)NC(=O)[C@@H]1CCCN1C(=O)[C@@H]1CCCN1C(=O)[C@H](CCCNC(=N)N)NC(=O)[C@@H]1CCCN1C(=O)[C@H](CCC(N)=O)NC(=O)[C@@H]1CCCN1C(=O)[C@H](CCCCN)NC(=O)[C@H](Cc1ccc(O)cc1)NC(=O)[C@@H](NC(=O)[C@@H]1CCCN1C(=O)[C@H](CCCCN)NC(=O)[C@H](CC(N)=O)NC(=O)[C@H](CC(N)=O)NC(=O)CN)C(C)C)C(=O)O [Api_R4K/I8K/H15R] (H-GNNKPVYKPQPRPPRPRL-OH),0.267 ± 0.097,,0.096 ± 0.023,0.133 ± 0.061,0.252 ± 0.087,,,,,,
CC(C)C[C@H](NC(=O)[C@H](CCCNC(=N)N)NC(=O)[C@@H]1CCCN1C(=O)[C@H](Cc1c[nH]cn1)NC(=O)[C@@H]1CCCN1C(=O)[C@@H]1CCCN1C(=O)[C@H](CCCNC(=N)N)NC(=O)[C@@H]1CCCN1C(=O)[C@H](CCC(N)=O)NC(=O)[C@@H]1CCCN1C(=O)[C@H](CCCCN)NC(=O)[C@H](Cc1ccc(O)cc1)NC(=O)[C@@H](NC(=O)[C@@H]1CCCN1C(=O)[C@H](CCCCN)NC(=O)[C@H](CC(N)=O)NC(=O)[C@H](CC(N)=O)NC(=O)CN)C(C)C)C(=O)O [Api_R4K/I8K] (H-GNNKPVYKPQPRPPHPRL-OH),0.034 ± 0.017,0.034 ± 0.017,0.012 ± 0.003,0.031 ± 0.014,0.031 ± 0.014,0.048 ± 0.011,0.024 ± 0.006,0.024 ± 0.006,0.024 ± 0.006,0.048 ± 0.011,0.048 ± 0.011
CC(C)C[C@H](NC(=O)[C@H](CCCNC(=N)N)NC(=O)[C@@H]1CCCN1C(=O)[C@H](CCCNC(=N)N)NC(=O)[C@@H]1CCCN1C(=O)[C@@H]1CCCN1C(=O)[C@H](CCCNC(=N)N)NC(=O)[C@@H]1CCCN1C(=O)[C@H](CCC(N)=O)NC(=O)[C@@H]1CCCN1C(=O)[C@H](CCCNC(=N)N)NC(=O)[C@H](Cc1ccc(O)cc1)NC(=O)[C@@H](NC(=O)[C@@H]1CCCN1C(=O)[C@H](CCCCN)NC(=O)[C@H](CC(N)=O)NC(=O)[C@H](CC(N)=O)NC(=O)CN)C(C)C)C(=O)O [Api_R4K/I8R/H15R] (H-GNNKPVYRPQPRPPRPRL-OH),0.252 ± 0.087,,,0.096 ± 0.023,0.133 ± 0.061,,,,,,
CC(C)C[C@H](NC(=O)[C@H](CCCNC(=N)N)NC(=O)[C@@H]1CCCN1C(=O)[C@H](Cc1c[nH]cn1)NC(=O)[C@@H]1CCCN1C(=O)[C@@H]1CCCN1C(=O)[C@H](CCCNC(=N)N)NC(=O)[C@@H]1CCCN1C(=O)[C@H](CCC(N)=O)NC(=O)[C@@H]1CCCN1C(=O)[C@H](CCCNC(=N)N)NC(=O)[C@H](Cc1ccc(O)cc1)NC(=O)[C@@H](NC(=O)[C@@H]1CCCN1C(=O)[C@H](CCCCN)NC(=O)[C@H](CC(N)=O)NC(=O)[C@H](CC(N)=O)NC(=O)CN)C(C)C)C(=O)O [Api_R4K/I8R] (H-GNNKPVYRPQPRPPHPRL-OH),0.034 ± 0.017,0.034 ± 0.017,0.012 ± 0.003,0.031 ± 0.014,0.034 ± 0.017,0.048 ± 0.011,0.017 ± 0.009,0.024 ± 0.006,0.024 ± 0.006,0.048 ± 0.011,0.048 ± 0.011
CC[C@H](C)[C@H](NC(=O)[C@H](CCCNC(=N)N)NC(=O)[C@@H](N)CCCNC(=N)N)C(=O)N[C@@H](CCCNC(=N)N)C(=O)N[C@@H](CCCCN)C(=O)N[C@@H](CCCNC(=N)N)C(=O)N1CCC[C@H]1C(=O)N1CCC[C@H]1C(=O)N[C@@H](CCCNC(=N)N)C(=O)N[C@@H](CC(C)C)C(=O)N1CCC[C@H]1C(=O)N[C@@H](CCCNC(=N)N)C(=O)N1CCC[C@H]1C(=O)N[C@@H](CCCNC(=N)N)C(=O)N1CCC[C@H]1C(=O)N[C@@H](CCCCN)C(=O)O [Bac_P5K/R16K] (H-RRIRKRPPRLPRPRPK-OH),0.157 ± 0.054,0.120 ± 0.028,0.060 ± 0.014,0.120 ± 0.028,0.120 ± 0.028,,,,,,
CC[C@H](C)[C@H](NC(=O)[C@H](CCCNC(=N)N)NC(=O)[C@@H](N)CCCNC(=N)N)C(=O)N[C@@H](CCCCN)C(=O)N[C@@H](CCCCN)C(=O)N[C@@H](CCCNC(=N)N)C(=O)N1CCC[C@H]1C(=O)N1CCC[C@H]1C(=O)N[C@@H](CCCNC(=N)N)C(=O)N[C@@H](CC(C)C)C(=O)N1CCC[C@H]1C(=O)N[C@@H](CCCNC(=N)N)C(=O)N1CCC[C@H]1C(=O)N[C@@H](CCCNC(=N)N)C(=O)N1CCC[C@H]1C(=O)N[C@@H](CCCCN)C(=O)O [Bac_R4K/P5K/R16K] (H-RRIKKRPPRLPRPRPK-OH),0.167 ± 0.061,0.120 ± 0.028,0.060 ± 0.014,0.167 ± 0.061,0.120 ± 0.028,,,,,,
CC[C@H](C)[C@H](NC(=O)[C@H](CCCNC(=N)N)NC(=O)[C@@H](N)CCCNC(=N)N)C(=O)N[C@@H](CCCCN)C(=O)N[C@@H](CCCCN)C(=O)N[C@@H](CCCNC(=N)N)C(=O)N1CCC[C@H]1C(=O)N1CCC[C@H]1C(=O)N[C@@H](CCCNC(=N)N)C(=O)N[C@@H](CC(C)C)C(=O)N1CCC[C@H]1C(=O)N[C@@H](CCCNC(=N)N)C(=O)N1CCC[C@H]1C(=O)N[C@@H](CCCNC(=N)N)C(=O)N1CCC[C@H]1C(=O)N[C@@H](CCCNC(=N)N)C(=O)O [Bac_R4K/P5K] (H-RRIKKRPPRLPRPRPR-OH),0.157 ± 0.054,0.120 ± 0.028,0.060 ± 0.014,0.120 ± 0.028,0.120 ± 0.028,,,,,,
CC[C@H](C)[C@H](NC(=O)[C@H](CCCNC(=N)N)NC(=O)[C@@H](N)CCCNC(=N)N)C(=O)N[C@@H](CCCCN)C(=O)N1CCC[C@H]1C(=O)N[C@@H](CCCNC(=N)N)C(=O)N1CCC[C@H]1C(=O)N1CCC[C@H]1C(=O)N[C@@H](CCCNC(=N)N)C(=O)N[C@@H](CC(C)C)C(=O)N1CCC[C@H]1C(=O)N[C@@H](CCCNC(=N)N)C(=O)N1CCC[C@H]1C(=O)N[C@@H](CCCNC(=N)N)C(=O)N1CCC[C@H]1C(=O)N[C@@H](CCCCN)C(=O)O [Bac_R4K/R16K] (H-RRIKPRPPRLPRPRPK-OH),0.120 ± 0.028,0.120 ± 0.028,0.060 ± 0.014,0.157 ± 0.054,0.120 ± 0.028,,,,,,
"CC[C@H](C)[C@H](NC(=O)[C@H](CCCNC(=N)N)NC(=O)[C@@H](N)CCCNC(=N)N)C(=O)N[C@@H](CCCNC(=N)N)C(=O)N1CCC[C@H]1C(=O)N[C@@H](CCCNC(=N)N)C(=O)N1CCC[C@H]1C(=O)N1CCC[C@H]1C(=O)N[C@@H](CCCNC(=N)N)C(=O)N[C@@H](CC(C)C)C(=O)N1CCC[C@H]1C(=O)N[C@@H](CCCNC(=N)N)C(=O)N1CCC[C@H]1C(=O)N[C@@H](CCCNC(=N)N)C(=O)N1CCC[C@H]1C(=O)N[C@@H](CCCNC(=N)N)C(=O)O [Bac_WT, reference compound] (H-RRIRPRPPRLPRPRPR-OH)",0.120 ± 0.028,0.060 ± 0.014,,0.120 ± 0.028,0.120 ± 0.028,,,,,,
